27 compounds from ChEMBL document CHEMBL4651402, “Screening of ~5500 FDA-approved drugs and clinical candidates for anti-SARS-CoV-2 activity” (2021) can be followed below.

The structures appear in SMILES notation.

For the first assay, the system named is SARS-CoV-2. Nature of the assay: microbe, parasite or virus in culture. The settings on record: Severe acute respiratory syndrome coronavirus 2, Vero C1008, 48 h.
On to `C[C@@H]1CCC2[C@](C)(CO)[C@@H](O)CC[C@]2(C)[C@]12CCC(CO)(CCO)O2` (some centres undefined), for which the IC50 was over 20 µM.
On to `Cc1c(Cn2c(C)nc3c(C(=O)O)cc(N4CCOCC4)cc32)cccc1C(F)(F)F` [GSK-2636771], for which the IC50 was over 20 µM.
`Cc1ccc([C@@]23Cn4cccc4C(=O)N2CCN3C(=O)c2conc2C)cn1` gave an IC50 of over 20 µM.
On to `COc1ccccc1N1CCNCC1`, for which the IC50 was over 20 µM.
`COc1ccc2cc([C@H](C)CO)ccc2c1` [NAPROXOL]: the IC50 was over 20 µM.
Consider `CCCC(=O)OC1(C(=O)CO)CCC2C3CCC4=CC(=O)CCC4(C)C3C(O)CC21C` (centres undefined), for which the IC50 was over 20 µM.
`O=C(O)CCC(=O)Nc1ccc(S(=O)(=O)Nc2nccs2)cc1` [SUCCINYLSULFATHIAZOLE]: the IC50 was over 20 µM.
`COc1cccc(C=O)c1O`: the IC50 was over 20 µM.
As to `OCC(O)CO` [GLYCERIN], the IC50 was over 20 µM.
Still for that read-out and setting: with `CN1C(=O)[C@@H](NC(=O)c2cc3ccccc3[nH]2)N=C(c2ccccc2)c2ccccc21` [DEVAZEPIDE] the figure was over 20 µM; with `CC(=O)OCC(=O)[C@@]1(O)CC[C@H]2C3CCC4=CC(=O)C=CC4(C)[C@H]3C(=O)CC21C` (some centres undefined), over 20 µM.
With `Nc1ccc(S(=O)(=O)Nc2ccnn2-c2ccccc2)cc1` [SULFAPHENAZOLE], the IC50 was over 20 µM.
As for `CC(C)CCCCCCCCCCCCCCC(=O)O`, the IC50 was over 20 µM.
In turn, `Cc1oc(-c2ccccc2)nc1CCOc1ccc(CC2C(=O)NOC2=O)cc1` (centres undefined) [REGLITAZAR] showed an IC50 of over 20 µM.
As for `NC1=NCC(c2ccccc2)O1` (centres undefined) [AMINOREX], the IC50 is over 100 µM.
`CCCOc1cc(N)ccc1C(=O)OCCN(CC)CC` [PROPOXYCAINE]: the IC50 is over 20 µM.
On to `CN(Cc1ccc(C(C)(C)C)cc1)Cc1cccc2ccccc12` [BUTENAFINE], for which the IC50 is over 20 µM.
The compound `CCn1cc(C(=O)O)c(=O)c2cc(F)c(N3CCN(C)CC3)cc21` [PEFLOXACIN] yielded an IC50 of over 20 µM.
Compound `CC(=O)NCC1(c2ccccc2)CCN(CC2COc3ccccc3O2)CC1` (centres undefined) [ACOXATRINE] registered an IC50 of over 20 µM.
The compound `Oc1ccc(Cl)c2cccnc12` [CLOXYQUIN] returned an IC50 of over 20 µM.
On to `Cc1sc2ccccc2c1CC1=NCCN1` [METIZOLINE], for which the IC50 was over 20 µM.
As to `CCC(N)Cc1c[nH]c2ccccc12` (centres undefined) [ETRYPTAMINE], the IC50 is over 20 µM.
On the same count and under the same terms, the value for `O=C(O)CNC(=O)C1C(=O)N(C2CCCCC2)C(=O)N(C2CCCCC2)C1=O` [DAPRODUSTAT] was over 20 µM; that for `CCOC(=O)C1=C(CN2CCOCC2)NC(c2nccs2)=N[C@H]1c1ccc(F)cc1Br` was over 20 µM; that for `NC(=O)C1(N2CCCCC2)CCN(CCCN2c3ccccc3CCc3ccc(Cl)cc32)CC1` [CLOCAPRAMINE] was over 20 µM.
Compound `COc1cc2ncnc(Oc3cccc(NC(=O)Nc4cc(C(C)(C)C(F)(F)F)on4)c3)c2cc1OC` [CEP-32496] yielded an IC50 of over 20 µM.
Turning to `COc1c(C(O)CCc2ccc(O)cc2)c(OCCN2CCCCC2)c(OC)c2occc12` (centres undefined) [PIPROFUROL], the IC50 was over 20 µM.

The same assay, now with this note: Severe acute respiratory syndrome coronavirus 2, Vero C1008, 48 h, read-out: pIC50 (converted).
For the compound `C[C@@H]1CCC2[C@](C)(CO)[C@@H](O)CC[C@]2(C)[C@]12CCC(CO)(CCO)O2` (some centres undefined), the IC50 was over 20 µM.
For the compound `Cc1c(Cn2c(C)nc3c(C(=O)O)cc(N4CCOCC4)cc32)cccc1C(F)(F)F` [GSK-2636771], the IC50 is over 20 µM.
Consider `Cc1ccc([C@@]23Cn4cccc4C(=O)N2CCN3C(=O)c2conc2C)cn1`, for which the IC50 was over 20 µM.
With `COc1ccccc1N1CCNCC1`, the IC50 is over 20 µM.
Still for that read-out and setting: the value for `COc1ccc2cc([C@H](C)CO)ccc2c1` [NAPROXOL] was over 20 µM.
Take `CCCC(=O)OC1(C(=O)CO)CCC2C3CCC4=CC(=O)CCC4(C)C3C(O)CC21C` (centres undefined): the IC50 is over 20 µM.
For `O=C(O)CCC(=O)Nc1ccc(S(=O)(=O)Nc2nccs2)cc1` [SUCCINYLSULFATHIAZOLE], the IC50 is over 20 µM.
Same read-out and setting: with `COc1cccc(C=O)c1O` the figure was over 20 µM; with `OCC(O)CO` [GLYCERIN], over 20 µM; with `CN1C(=O)[C@@H](NC(=O)c2cc3ccccc3[nH]2)N=C(c2ccccc2)c2ccccc21` [DEVAZEPIDE], over 20 µM.
With `CC(=O)OCC(=O)[C@@]1(O)CC[C@H]2C3CCC4=CC(=O)C=CC4(C)[C@H]3C(=O)CC21C` (some centres undefined), the IC50 was over 20 µM.
In the case of `Nc1ccc(S(=O)(=O)Nc2ccnn2-c2ccccc2)cc1` [SULFAPHENAZOLE], the IC50 is over 20 µM.
On the same count and under the same terms, the value for `CC(C)CCCCCCCCCCCCCCC(=O)O` was over 20 µM.
For `Cc1oc(-c2ccccc2)nc1CCOc1ccc(CC2C(=O)NOC2=O)cc1` (centres undefined) [REGLITAZAR], the IC50 was over 20 µM.
Consider `NC1=NCC(c2ccccc2)O1` (centres undefined) [AMINOREX], for which the IC50 is over 100 µM.
On to `CCCOc1cc(N)ccc1C(=O)OCCN(CC)CC` [PROPOXYCAINE], for which the IC50 was over 20 µM.
`CN(Cc1ccc(C(C)(C)C)cc1)Cc1cccc2ccccc12` [BUTENAFINE]: the IC50 is over 20 µM.
Turning to `CCn1cc(C(=O)O)c(=O)c2cc(F)c(N3CCN(C)CC3)cc21` [PEFLOXACIN], the IC50 was over 20 µM.
Still for that read-out and setting: with `CC(=O)NCC1(c2ccccc2)CCN(CC2COc3ccccc3O2)CC1` (centres undefined) [ACOXATRINE] the figure was over 20 µM; with `Oc1ccc(Cl)c2cccnc12` [CLOXYQUIN], over 20 µM.
Turning to `Cc1sc2ccccc2c1CC1=NCCN1` [METIZOLINE], the IC50 is over 20 µM.
`CCC(N)Cc1c[nH]c2ccccc12` (centres undefined) [ETRYPTAMINE]: the IC50 is over 20 µM.
With `O=C(O)CNC(=O)C1C(=O)N(C2CCCCC2)C(=O)N(C2CCCCC2)C1=O` [DAPRODUSTAT], the IC50 is over 20 µM.
Still for that read-out and setting: with `CCOC(=O)C1=C(CN2CCOCC2)NC(c2nccs2)=N[C@H]1c1ccc(F)cc1Br` the figure was over 20 µM; with `NC(=O)C1(N2CCCCC2)CCN(CCCN2c3ccccc3CCc3ccc(Cl)cc32)CC1` [CLOCAPRAMINE], over 20 µM; with `COc1cc2ncnc(Oc3cccc(NC(=O)Nc4cc(C(C)(C)C(F)(F)F)on4)c3)c2cc1OC` [CEP-32496], over 20 µM.
For the compound `COc1c(C(O)CCc2ccc(O)cc2)c(OCCN2CCCCC2)c(OC)c2occc12` (centres undefined) [PIPROFUROL], the IC50 was over 20 µM.
